Key:
Conditions in all cases: stereoisomer not certain
[1] = RP, Phenomenex Kinetex C18, 150 × 2.1 mm, 1.7 µm, 30 °C, 0.3 mL/min, estimated dead time 1.1 min; A: water + 0.1% formic acid, pH 3; B: acetonitrile + 0.1% formic acid, pH 3; gradient (min/%B) 0/2 14/100 17/100 17.1/2 25/2
[2] = as above; remark: listed apart in the source
[3] = HILIC, Merck SeQuant ZIC-pHILIC, 150 × 2.1 mm, 5 µm, 40 °C, 0.3 mL/min, estimated dead time 1.1 min; A: acetonitrile; B: water + 2.8 mM ammonium formate, pH 9; gradient (min/%B) 0/5 1/5 10/51 13/51 13.1/5 20/5
[4] = HILIC, Waters ACQUITY UPLC BEH Amide, 150 × 2.1 mm, 1.7 µm, 40 °C, 0.5 mL/min, estimated dead time 0.66 min; A: 5% water + 95% acetonitrile; B: 70% water + 30% acetonitrile + 10 mM ammonium formate, pH 6.5; gradient (min/%B) 0/0 2/0 20/70 23/70 24/0 31/0

SMILES | LC retention time [1] [min] | LC retention time [2] [min] | LC retention time [3] [min] | LC retention time [4] [min]
O=c1[nH]c(=O)c2[nH]cnc2[nH]1 [XANTHINE] | 1.82 | 2.05 | 6.53 | 4.97
Cn1c(=O)c2[nH]cnc2n(C)c1=O [THEOPHYLLINE] | 3.88 | 4.07 | 1.98 | 1.36
O=C(O)CNC(=O)c1ccccc1 [HIPPURATE] | 4.62 | 4.78 | 5.32 | 2.66
Cc1c[nH]c(=O)[nH]c1=O [THYMINE] | 2.42 | 2.54 | 2.68 | 1.6
OCCc1c[nH]c2ccccc12 [INDOLE-3-ETHANOL] | 5.55 | 6.56 | 3.41 | 0.83
CC(C)(CO)C(O)C(=O)NCCC(=O)O (configuration not stated) [PANTOTHENATE] | 3.4 | 3.49 | 6.03 | 3.31
O=C(O)c1cc(=O)c2ccccc2[nH]1 [KYNURENATE] | 4.19 | 4.34 | 5.56 | 2.69
O=c1[nH]cnc2nc[nH]c12 [HYPOXANTHINE] | 1.62 | 1.76 | 6.25 | 3.88
O=C(O)Cc1c[nH]c2ccc(O)cc12 [5-HYDROXYINDOLEACETATE] | 4.49 | 4.69 | 5.86 | 1.37
Cc1ncc(CO)c(CO)c1O [PYRIDOXINE] | 1.65 | 1.81 | 3.69 | 3.29
Cn1cnc2c(ncn2C2OC(CO)C(O)C2O)c1=N (configuration not stated) [1-METHYLADENOSINE] | 3.16 | 3.36 | 4.07 | 2.82
NC(Cc1ccc(O)cc1)C(=O)O (configuration not stated) [TYROSINE] | 2 | 2.11 | 8.2 | 9
NC(=O)c1ccccc1O [SALICYLAMIDE] | 5.26 | 5.42 | 1.46 | 0.81
N[C@@H](Cc1cc(I)c(Oc2ccc(O)cc2)c(I)c1)C(=O)O [3,5-DIIODO-L-THYRONINE] | 6.44 | 6.51 | 6.36 | 6.98
CC(=O)NC(CC(C)C)C(=O)O (configuration not stated) [N-ACETYLLEUCINE] | 5.08 | 5.25 | 3.02 | 4.22
O=c1[nH]c(=O)c2ncn(C3OC(CO)C(O)C3O)c2[nH]1 (configuration not stated) [XANTHOSINE] | 3.01 | 3.11 | 7.99 | 7.17
Cc1cc2nc3c(=O)[nH]c(=O)nc-3n(CC(O)C(O)C(O)CO)c2cc1C (configuration not stated) [RIBOFLAVIN] | 4.65 | 4.85 | 5.9 | 6.01
CSc1ncnc2nc[nH]c12 [THIOPURINE S-METHYLETHER] | 4.4 | 4.64 | 2.09 | 1.08
CC(=O)NC(Cc1ccccc1)C(=O)O (configuration not stated) [N-ACETYLPHENYLALANINE] | 5.54 | 5.64 | 4.08 | 2.48
O=C(O)CCCCCCCC(=O)O [AZELATE] | 6.14 | 6.26 | 3.51 | 1.24
CC(=O)NCCCC(=O)[O-] [4-ACETAMIDOBUTANOATE] | 2.47 | 2.62 | 5.1 | 3.11
O=C(O)CCCCCCCCC(=O)O [SEBACATE] | 6.91 | 7 | 2.41 | 1.12
CC(CCC(=O)O)C1CCC2C3C(O)CC4CC(O)CCC4(C)C3CC(O)C12C (configuration not stated) [CHOLATE] | 9.02 | 9.11 | 2.33 | 2.62
CSCC1OC(n2cnc3c(N)ncnc32)C(O)C1O (configuration not stated) [METHYLTHIOADENOSINE] | 3.82 | 4.07 | 3.94 | 1.99

SMILES | LC retention time [1] [min] | LC retention time [2] [min] | LC retention time [3] [min] | LC retention time [4] [min]
NC(=O)[C@@H](N)Cc1c[nH]c2ccccc12 [L-TRYPTOPHANAMIDE] | 3.7 | 3.82 | 7.51 | 5.86
NC(Cc1ccccc1)C(=O)O (configuration not stated) [PHENYLALANINE] | 3.13 | 3.18 | 7.04 | 7.87
CSCC[C@H](NC=O)C(=O)O [N-FORMYL-L-METHIONINE] | 3.85 | 3.93 | 5.35 | 2.24
CC12CCC(=O)C=C1CCC1C2C(O)CC2(C)C1CCC2(O)C(=O)CO (configuration not stated) [CORTISOL] | 7.09 | 7.18 | 1.43 | 1
NC(=O)Cc1c[nH]c2ccccc12 [INDOLE-3-ACETAMIDE] | 5.26 | 5.42 | 2.09 | 0.98
Cc1cn(C2CC(O)C(CO)O2)c(=O)[nH]c1=O (configuration not stated) [THYMIDINE] | 3.21 | 3.34 | 3.56 | 1.97
O=c1ccn(C2OC(CO)C(O)C2O)c(=O)[nH]1 (configuration not stated) [URIDINE] | 1.88 | 2.06 | 6.2 | 3.65
COc1cc(C=CC(=O)O)ccc1O [FERULATE] | 5.76 | 5.87 | 3.78 | 1.24
COc1ccc2[nH]cc(CCNC(C)=O)c2c1 [MELATONIN] | 6.29 | 6.37 | 1.36 | 0.88
Nc1ccn(C2CC(O)C(CO)O2)c(=O)n1 (configuration not stated) [DEOXYCYTIDINE] | 1.43 | 1.54 | 6.63 | 5.71
O=c1[nH]c(=O)c2nccnc2[nH]1 [2,4-DIHYDROXYPTERIDINE] | 2.24 | 2.49 | 4.42 | 1.79
CC(=O)NCCc1c[nH]c2ccc(O)cc12 [N-ACETYLSEROTONIN] | 4.58 | 4.83 | 2.26 | 1.02
CC(C)=CCNc1ncnc2nc[nH]c12 [N6-(DELTA2-ISOPENTENYL)-ADENINE] | 4.91 | 5.14 | 2.04 | 1.15
CC1OC(n2cnc3c(N)ncnc32)C(O)C1O (configuration not stated) [5'-DEOXYADENOSINE] | 3.11 | 3.24 | 4.24 | 2.4
O=c1ccn(C2CC(O)C(CO)O2)c(=O)[nH]1 (configuration not stated) [DEOXYURIDINE] | 2.39 | 2.63 | 4.73 | 2.37
O=C(O)c1ccc(=O)[nH]c1 [6-HYDROXYNICOTINATE] | 2.61 | 2.76 | 7.69 | 5.68
O=C(O)c1ccnc2ccccc12 [4-QUINOLINECARBOXYLATE] | 2.29 | 2.5 | 5.08 | 2.82
CC(=O)NC(Cc1c[nH]c2ccccc12)C(=O)O (configuration not stated) [N-ACETYLTRYPTOPHAN] | 5.82 | 5.91 | 5.66 | 2.78
O=c1[nH]cnc2c1ncn2C1OC(CO)C(O)C1O (configuration not stated) [INOSINE] | 2.64 | 2.79 | 6.86 | 5.52
Cn1c(=O)[nH]c2ncn(C)c2c1=O [PARAXANTHINE] | 2.27 | 4.04 | 2.16 | 1.36
Nc1nc2c(ncn2C2OC(CO)C(O)C2O)c(=O)[nH]1 (configuration not stated) [GUANOSINE] | 2.67 | 2.8 | 7.76 | 7.3
CC1NC(=O)NC1CCCCCC(=O)O (configuration not stated) [DETHIOBIOTIN] | 5.18 | 5.37 | 3.18 | 2.6
Cc1cc2nc3[nH]c(=O)[nH]c(=O)c3nc2cc1C [LUMICHROME] | 6.13 | 6.2 | 2.06 | 1.32
Nc1nc2c(ncn2C2CC(O)C(CO)O2)c(=O)[nH]1 (configuration not stated) [DEOXYGUANOSINE] | 2.84 | 2.97 | 7.04 | 6.48

— the RepoRT retention time repository (doi:10.1016/j.chroma.2019.01.023)
